Reference: US20140206608A1 (priority 2012, published 2014)
*1 amine or outer side, *2 acyl side, *3 side chain or, on linkers, in order; H or OH if unused. Where a SMILES comes first, the peptide text is derived from it. Side-chain parts run from the residue outwards. [ ]: non-standard residue; d: D form. The star is where a group is joined. γGlu = O=C(O)[C@H](CCC(=O)[*:2])N[*:1]; Stearoyl = CCCCCCCCCCCCCCCCCC(=O)*; Aib = CC(C)(N)C(=O)O

Key:
trypsin = assay: Enzymatic stability testing versus trypsin; format: in vitro ADME; conditions: human, human recombinant trypsin, pH 8.3; % of degradation after 120 min; 2 μM peptide, 37° C.; read-out: Lability versus enzymatic degradation, Trypsin
Description: The reaction was stopped by addition of ethanol. The samples were analyzed by LC-MS/MS. […] The metabolic lability is given as % of degradation.

[1] = system: female diabetic dbdb-mice; assay: 4 weeks of treatment on glucose, HbA1c and oral glucose tolerance in female diabetic dbdb-mice (method 4); format: in vivo
Description: 8 week old, female diabetic dbdb-mice of mean non-fasted glucose value of 14.5 mmol/l and a body weight of 37-40 g were used. Mice were individually marked and were adapted to housing conditions for at least one week.
7 days prior to study start, baseline values for non-fasted glucose and HbA1c were determined, 5 days prior to study start, mice were assigned to groups and cages (5 mice per cage, 10 per group) according to their HbA1c values to ensure even distribution of lower and higher values between groups (stratification).
Mice were treated for 4 weeks, by once daily subcutaneous administration 3 hours prior to the dark phase (6 pm to 6 am). Blood samples from a tail tip incision were obtained for HbA1c on study day 21 and oral glucose tolerance was assessed in the 4th week. Oral glucose tolerance test was done in the morning without prior extra compound administration to majorly assess the effect of chronic treatment and less of acute compound administration. Mice were fasted for 4 hours prior to oral glucose administration (2 g/kg, t=0 min). Blood samples were drawn prior to glucose administration and at 15, 30, 60, 90, 120, and 180 min thereafter. Feed was returned after the last blood sampling. Results are represented as change from baseline, glucose in mmol/l and HbA1c in %.
Statistical analyses are performed with Everstat Version 6.0 based on SAS by 1-way-ANOVA, followed by Dunnett's post-hoc test against vehicle-control. Differences are considered statistically significant at the p<0.05 level.

[2] = biological target: T1, human glucagon receptor (hGLUC R) (Homo sapiens, UniProt P47871); assay: cAMP response of HEK-293 cells stably expressing human glucagon receptor (HTRF); format: cell-based; conditions: EC50 hGLUC R, Table 7; cAMP formation
T1 construct: expressed in transfected cells; host or cells: HEK-293
Description: cAMP content of cells was determined using a kit from Cisbio Corp. (cat. no. 62AM4PEC) based on HTRF (Homogenous Time Resolved Fluorescence). For preparation, cells were split into T175 culture flasks and grown overnight to near confluency in medium (DMEM/10% FBS). Medium was then removed and cells washed with PBS lacking calcium and magnesium, followed by proteinase treatment with accutase (Sigma-Aldrich cat. no. A6964). Detached cells were washed and resuspended in assay buffer (1×HBSS; 20 mM HEPES, 0.1% BSA, 2 mM IBMX) and cellular density determined. They were then diluted to 400000 cells/ml and 25 μl-aliquots dispensed into the wells of 96-well plates. For measurement, 25 μl of test compound in assay buffer was added to the wells, followed by incubation for 30 minutes at room temperature.

female NMRI-mice = assay: Automated assessment of 22-hours feed intake in female NMRI-mice; format: in vivo
Description: Female NMRI-mice of a body weight between 20 and 30 g were used. Mice were adapted to housing conditions for at least one week and for at least one day single-caged in the assessment equipment, when basal data were recorded simultaneously. On the study day, test product was administered subcutaneously close to the lights-off phase (12 h lights off) and assessment of feed consumption was directly started afterwards. Assessment included continued monitoring over 22 hours, while data are processed as mean over every 30 min. Repetition of this procedure over several days was possible. Restriction of assessment to 22 hours was for practical reasons to allow for reweighing of animals, refilling of feed and water and drug administration between procedures. Results could be assessed as cumulated data over 22 hours or differentiated to 30 min intervals.
Statistical analyses were performed with Everstat 6.0 by two-way ANOVA on repeated measures and Dunnett's post-hoc analyses. Differences were considered statistically significant at the p<0.05 level.
Lights-off phase (dark phase) started 4 hours later.

neprilysin = neprilysin (Homo sapiens, UniProt P08473); assay: in vitro; conditions: human recombinant neprilysin, pH 7.5
Description: In the experiment, GLP-1 was used as a positive control. The incubation was started by addition of the enzyme fraction to the pre-warmed buffer solution. […] The reaction was stopped by addition of ethanol. The samples were analyzed by LC-MS/MS. The percentage of biotransformation was measured by extent of depletion of the test compound in mass spectrometry. Therefore the peak area of the MRM ion signal of the 0h time point (100%) versus the incubated time points was measured. The metabolic lability is given as % of degradation.

[3] = 10 μg/kg s.c. once daily, p<0.05

T1 sequence (P47871 26-477): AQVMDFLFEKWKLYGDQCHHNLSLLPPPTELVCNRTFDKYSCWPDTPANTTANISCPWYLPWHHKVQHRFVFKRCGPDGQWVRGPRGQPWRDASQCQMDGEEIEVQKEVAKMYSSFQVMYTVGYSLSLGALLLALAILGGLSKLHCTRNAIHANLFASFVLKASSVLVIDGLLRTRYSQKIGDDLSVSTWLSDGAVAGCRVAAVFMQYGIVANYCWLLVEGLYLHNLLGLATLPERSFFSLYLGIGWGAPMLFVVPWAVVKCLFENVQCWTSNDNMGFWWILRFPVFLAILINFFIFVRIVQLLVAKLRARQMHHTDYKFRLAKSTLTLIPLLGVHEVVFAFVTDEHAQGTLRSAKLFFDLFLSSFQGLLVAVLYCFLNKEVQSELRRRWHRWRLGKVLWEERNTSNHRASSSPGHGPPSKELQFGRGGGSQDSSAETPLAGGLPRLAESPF
Sequence of neprilysin (P08473 whole entry): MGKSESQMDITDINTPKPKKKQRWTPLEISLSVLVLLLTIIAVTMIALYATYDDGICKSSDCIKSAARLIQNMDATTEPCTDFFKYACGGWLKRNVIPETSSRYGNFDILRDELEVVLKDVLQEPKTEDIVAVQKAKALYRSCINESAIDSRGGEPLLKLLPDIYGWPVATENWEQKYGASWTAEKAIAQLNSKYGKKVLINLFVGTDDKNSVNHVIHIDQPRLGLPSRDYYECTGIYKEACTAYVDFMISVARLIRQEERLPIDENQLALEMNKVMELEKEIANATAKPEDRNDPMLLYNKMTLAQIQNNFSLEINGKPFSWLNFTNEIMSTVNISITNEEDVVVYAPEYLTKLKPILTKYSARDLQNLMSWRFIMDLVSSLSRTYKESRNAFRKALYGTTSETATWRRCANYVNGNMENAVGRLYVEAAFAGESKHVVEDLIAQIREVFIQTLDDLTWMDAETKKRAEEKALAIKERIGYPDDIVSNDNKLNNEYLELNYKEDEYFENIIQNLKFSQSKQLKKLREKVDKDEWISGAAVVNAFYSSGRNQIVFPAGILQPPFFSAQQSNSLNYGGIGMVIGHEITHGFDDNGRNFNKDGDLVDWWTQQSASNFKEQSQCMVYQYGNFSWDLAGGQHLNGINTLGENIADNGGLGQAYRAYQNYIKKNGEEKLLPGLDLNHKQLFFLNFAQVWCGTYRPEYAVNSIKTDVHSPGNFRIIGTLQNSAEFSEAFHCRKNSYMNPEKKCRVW

## CCCCCCCCCCCCCCCCCC(=O)N[C@@H](CCC(=O)NCCCC[C@H](NC(=O)[C@H](CCC(N)=O)NC(=O)[C@@H](NC(=O)[C@H](CO)NC(=O)[C@H](CC(C)C)NC(=O)[C@H](CC(=O)O)NC(=O)[C@H](CO)NC(=O)[C@@H](NC(=O)[C@H](Cc1ccccc1)NC(=O)[C@@H](NC(=O)CNC(=O)[C@H](CCC(=O)O)NC(=O)C(C)(C)NC(=O)[C@@H](N)Cc1ccc(O)cc1)[C@@H](C)O)[C@@H](C)O)[C@@H](C)CC)C(=O)N[C@@H](CCC(=O)O)C(=O)N[C@@H](CCC(=O)O)C(=O)N[C@@H](CCC(=O)O)C(=O)N[C@@H](C)C(=O)N[C@H](C(=O)N[C@@H](CCCNC(=N)N)C(=O)N[C@@H](CC(C)C)C(=O)N[C@@H](Cc1ccccc1)C(=O)N[C@H](C(=O)N[C@@H](CCC(=O)O)C(=O)N[C@@H](Cc1c[nH]c2ccccc12)C(=O)N[C@@H](CC(C)C)C(=O)N[C@@H](CCCCN)C(=O)N[C@@H](C)C(=O)NCC(=O)NCC(=O)N1CCC[C@H]1C(=O)N[C@@H](CO)C(=O)N[C@@H](CO)C(=O)NCC(=O)N[C@@H](C)C(=O)N1CCC[C@H]1C(=O)N1CCC[C@H]1C(=O)N1CCC[C@H]1C(=O)N[C@@H](CO)C(N)=O)[C@@H](C)CC)C(C)C)C(=O)O [SEQ ID NO: 10, Y-Aib-E-G-T-F-T-S-D-L-S-I-Q-K(γE-x70)-EEEAVRLFIEWLKAGGPSSGAPPPS-NH2] (H-Y[Aib]EGTFTSDLSIQK([γGlu-Stearoyl])EEEAVRLFIEWLKAGGPSSGAPPPS-NH2)
trypsin
  metabolised at 2 h, 2 μM: 33%
[1]; 10 μg/kg s.c. once daily
  non-fasted glucose compared to vehicle control: tended to reduce non-fasted glucose
[1]; [3]
  HbA1c compared to vehicle control: prevented an increase of HbA1c in a statistical significant manner
  reduction of AUC under the glucose curve compared to vehicle control: reached statistical significance
[1]; 3 and 10 μg/kg s.c. once daily
  oral glucose tolerance: improved oral glucose tolerance
[2]
  EC50: > 1000 nM
Female NMRI-mice; 3 μg/kg s.c., not significant, p=0.78
  reduction of feed intake after 22 hours: 19%
Female NMRI-mice; 10 μg/kg s.c., p=0.049
  reduction of feed intake after 22 hours: 34%
neprilysin
  metabolised at 2 h, 2 μM: 0%
